Experimental data taken from US20160175457A1, “OCULAR DEVICE” (DSM IP ASSETS B.V., priority 2013, published 2016).
Entries after “also recorded” stand apart in the source; their conditions may differ. Read-outs that look alike come from different tables or passages of the source. No end group written: not given here.

Columns and labels:
[1] = test system: T1, peptide Gly-Pro-Leu-Ala-Leu-Leu-Ala-Gln (GPLALLAQ)
T1 sequence: GPLALLAQ

[2] = test system: proteinases in contact lens rinsing liquid (tear fluid); assay: Incubation of hyaluronic acid-peptide-HEMA conjugate with lyophilized contact lens rinsing liquid, LC-MS of peptide-HEMA fragments; assay type: biochemical, human; conditions: 35 hours at 35° C., rinsing liquid of five individuals (hard and soft lenses)
Text: (§1) To cope with this experimental difficulty, we decided to focus on the identification of Peptide-HEMA fragments that can be expected to be released from the hyaluronic acid-peptide-HEMA conjugate upon exposure to a suitable proteolytic activity. On the basis of peptide hydrolysis data gathered in Examples 2 and 5, peptide Leu-Leu-Leu-Ala-Ala-Gly (LLLAAG) was synthesized and used to prepare a hyaluronic acid-peptide-HEMA conjugate (Example 6).
Rinsing liquid was collected from 5 individuals, two wearing hard lenses and three wearing soft lenses, at the end of the working day over multiple days. The lenses were collected using sterile nitrile gloves and rinsed with 200 μl MilliQ water on a flat glass microscope slide (Thermo Scientific) containing Grace Bio-labs Press-to-Seal silicone isolator, No PSA (Sigma Aldrich GBL664504-25EA). The rinse liquid was transferred to a Protein LoBind Tube 2.0 ml (Eppendorf) using Maxymum Recovery pipette tips (Axygen scientific). The rinse liquid was frozen at −80° C. as soon as possible. Rinsing fluid was lyophilized overnight when >1.5 ml rinsing liquid was collected for each individual.
Hyaluronic acid-peptide-HEMA conjugates are too heterologous in mass to be directly detected by MS. […]
The conjugate (Example 6) was dissolved in 50 mM ammonium acetate buffer at 0.2 mg/ml and analyzed by 25 μl injections on the LC-MS system. […]

[3] = test system: human elastase; assay: Incubation of hyaluronic acid-peptide-HEMA conjugate with human elastase preparation, LC-MS; assay type: biochemical; conditions: 35° C., data not shown
Experimental: as §1
The conjugate (Example 6) was dissolved in 50 mM ammonium acetate buffer at 0.2 mg/ml and analyzed by 25 μl injections on the LC-MS system. The LC-MS system consisted of an Accela UHPLC (Thermo Fisher, Bremen, Germany) coupled to the LTQ-Orbitrap Fourier Transform Mass Spectrometer. The column used was a ZORBAX Rapid Resolution HT SB-C18, 2.1×50 mm, 1.8 μm (Agilent 827700-902). The autosampler was set to 35° C. for incubation of the samples and the column oven was set to 50° C. The analytes in the samples were separated using a flow of 0.8 ml min^−1 and the following gradient was used: […]
0-0.2 min 2.5% B, 0.2-2 min 2.5-30% B, 2-2.5 min 30-80% B, 2.5-3 min 80% B, 3.01-5 min 2.5% B, where buffer A is 0.1% Formic Acid in Water (Biosolve, LC-MS grade) and buffer B is 0.1% Formic Acid in Acetonitrile (Biosolve, LC-MS grade). The MS was scanning at 7500 resolution m/z 150-800. […]

[4] = test system: human leukocyte elastase; assay: Incubation of synthetic peptides with human leukocyte elastase, mass spectrometry; assay type: biochemical
Experimental: (§2) Stock solutions (1 mg/ml in 5% acetonitrile) were prepared from the synthetic peptide substrates. The stock solutions are optionally 10× diluted with MilliQ water prior to incubation. Elastase (Sigma #: E7885), Tryptase (Sigma #: T7063), or tear fluid were added to the diluted substrate solutions and incubation was performed at 25° C. Aliquots of 20 μl were taken at several time points to monitor substrate degradation.
(§3) The aliquots were 10× diluted in 50% acetonitrile, 0.1% formic acid prior to analysis. Mass Spectrometric (MS) analysis was performed by infusion in the LTQ-Orbitrap Fourier Transform Mass Spectrometer (Thermo Fisher, Bremen, Germany). Infusion was performed by mixing 10 μl min^−1 of sample in a 200 μl min^−1 flow of 50% acetonitrile, 0.1% formic acid. The MS analysis was performed in the Orbitrap scanning at 7500 resolution using 200-1600 m/z mass range. Proteolytic activity during the different incubations of the synthetic peptides substrates was studied by manual inspection of the MS data using the Qual browser in the XCalibur software (Thermo Fisher, Bremen, Germany).
(§4) After its purification, the peptide was incubated with contact lens rinsing liquid (cf. Example 1) of a single individual and incubated over the weekend at 25° C. Then samples of the incubation liquid were subjected to mass spectrometry to confirm cleavage. […]

[5] = test system: proteinases present in tear fluid (contact lens rinsing liquid); assay: Incubation of synthetic peptides with tear fluid / contact lens rinsing liquid, cleavage followed by mass spectrometry; assay type: biochemical, human; conditions: for endoproteolytic cleavage after Arg or Val by tear fluid / proteolytic cleavage observed after incubation with tear fluid (rinsing fluid): 162 hours (FIG. 2) / 165 hours at 25 degrees C.
Experimental: as §2, §3
Contact lens wearing subjects were invited to participate at the end of their working day. Using sterilized gloves, lenses were removed and the inner surface of each lens was rinsed with 250 microliter of sterilized water. Then 100 microliter samples of the rinsing liquid were incubated overnight at 25 degrees C. with 100 μl of a 1.0 mg/ml BODIPY TR-X casein solution (EnzChek Protease Assay kit ‘Red fluorescence’; Molecular Probes, Eugene, Oreg., USA). Throughout the incubation the fluorescence of the samples was measured every minute (kinetic measurement) according to the EnzChek kit protocol (excitation=590±10 nm, emission=645±20 nm) using a Tecan Infinite M1000 microtiterplate reader (Männedorf, Switzerland).
After its purification, the peptide was incubated with contact lens rinsing liquid (cf. Example 1) of a single individual and incubated over the weekend at 25° C. Then samples of the incubation liquid were subjected to mass spectrometry to confirm cleavage. […] An incubation of the peptide with human leukocyte elastase (Sigma Aldrich) yielded GPLALL and AQ as the major cleavage products. An incubation of the peptide with human lung tryptase (also from Sigma Aldrich) yielded GPLAL/LAQ as the major cleavage products (see FIG. 1). The latter observations indicate that a peptide incorporating aliphatic hydrophobic residues like Ala and Leu support cleavage by human, tryptase- and elastase-like enzymes.
In this Example we test the cleavage activity of tear fluid on two, slightly different synthetic peptides. The first peptide comprises Arg as a charged, basic residue (Ala-Ala-Pro-Arg-Ala-Ala-Arg-Gln, AAPRAARQ (SEQ ID NO: 4)) in order to facilitate cleavage by trypsin-like endoproteases. The second peptide comprises the medium sized aliphatic hydrophobic residue Val instead of Arg (Ala-Ala-Pro-Val-Ala-Ala-Arg-Gln, AAPVAARQ (SEQ ID NO: 5)) in order to facilitate cleavage by elastase-like endoproteases. The experiment was executed essentially as described in Example 2, but in this case tear fluid of four different individuals was obtained and incubated for 165 hours at 25 degrees C. Samples of the incubation liquid were again subjected to mass spectrometry.

[6] = test system: human lung tryptase; assay: Incubation of synthetic peptide with human lung tryptase, mass spectrometry; assay type: biochemical; conditions: 25° C., overnight (FIG. 1)
Experimental: as §2, §3, §4

[7] = target: T2, peptide Leu-Leu-Leu-Ala-Ala-Gly (LLLAAG)
T2 chain: LLLAAG

[8] = target: T3, hyaluronic acid-peptide-HEMA conjugate (hyaluronic acid-Leu-Leu-Leu-Ala-Ala-Gly-HEMA)
T3 chain: LLLAAG

[9] = target: T4, peptide Gly-Pro-Leu-Ala-Leu-Leu-Ala-Gln (GPLALLAQ)
T4 chain: GPLALLAQ

Molecule: human lung tryptase
- peptide cleavage products by mass spectrometry [1]: yielded GPLAL/LAQ as the major cleavage products

Molecule: hyaluronic acid-peptide-HEMA conjugate: conjugate of hyaluronic acid with NH2-Leu-Leu-Leu-Ala-Ala-Gly hexapeptide and HEMA (hydroxyethyl methacrylate) (LLLAAG; not fully specified (N-terminus, C-terminus); printed as Leu-Leu-Leu-Ala-Ala-Gly; also: conjugate with hyaluronic acid and HEMA, attachment not given here)
- peptide-HEMA fragments formed upon incubation with concentrated (lyophilized) contact lens rinsing liquid [2]: formation of various peptide-HEMA fragments; also recorded: is able to cleave the peptide of the hyaluronic acid-peptide-HEMA conjugate; also recorded: LAAG-HEMA
- peptide-HEMA fragments formed upon incubation with elastase [3]: formation of the expected AG-HEMA fragment

Molecule: LLLAAG
- conversion of intact peptide by elastase (digestion pattern) ([4]; overnight at room temperature, 50 mM ammonium acetate buffer): converted to fragment Leu-Leu-Leu-Ala (LLLA); also recorded: completely converted to LLLA

Molecule: AAPVAARQ (peptide sequence cleavable by proteinases present in tear fluid) [Ala-Ala-Pro-Val-Ala-Ala-Arg-Gln, synthetic test peptide comprising Val instead of Arg]
- endoproteolytic cleavage after Arg or Val by tear fluid [5]: Cleavage C-terminal of Val does not occur
- proteolytic cleavage observed after incubation with tear fluid (rinsing fluid) [5]: hydrolysis of the peptide bond between Pro and Val

Molecule: AAPRAARQ (peptide sequence cleavable by proteinases present in tear fluid) [Ala-Ala-Pro-Arg-Ala-Ala-Arg-Gln, synthetic test peptide comprising Arg as a charged, basic residue]
- endoproteolytic cleavage after Arg or Val by tear fluid [5]: Hydrolysis of peptide bonds involving Arg (R) is not observed
- proteolytic cleavage observed after incubation with tear fluid (rinsing fluid) [5]: only showing cleavage at the N-terminal Ala

Molecule: GPLALLAQ (peptide sequence cleavable by proteinases present in tear fluid) [Gly-Pro-Leu-Ala-Leu-Leu-Ala-Gln, linker test peptide cleavable by tear fluid proteinases]
- major cleavage products after incubation with human leukocyte elastase ([4]; 25° C., 30 minutes (FIG. 1)): GPLALL and AQ
- major cleavage products after incubation with human lung tryptase [6]: GPLAL/LAQ
- cleavage products identified after incubation with contact lens rinsing liquid (tear fluid) ([5]; rinsing liquid of a single individual, over the weekend at 25° C.): GPLAL and LAQ, GPL and ALLAQ and GPLA and LLAQ

B1: human leukocyte elastase (protein)
chain: IVGGRRARPHAWPFMVSLQLRGGHFCGATLIAPNFVMSAAHCVANVNVRAVRVVLGAHNLSRREPTRQVFAVQRIFENGYDPVNLLNDIVILQLNGSATINANVQVAQLPAQGRRLGNGVQCLAMGWGLLGRNRGIASVLQELNVTVVTSLCRRSNVCTLVRGRQAGVCFGDSGSPLVCNGLIHGIASFVRGGCASGLYPDAFAPVAQFVNWIDSIIQ
- peptide cleavage products by mass spectrometry [7]: precursor peptide Leu-Leu-Leu-Ala-Ala-Gly (LLLAAG) was converted to fragment Leu-Leu-Leu-Ala (LLLA)
- peptide-HEMA fragments by LC-MS [8]: showed the formation of the expected AG-HEMA fragment
- peptide cleavage products by mass spectrometry [9]: yielded GPLALL and AQ as the major cleavage products
